Tests used:
BMDM [1] = experiment: extracellular (cell-free) mtDNA released by donor BMDM; type: cell-based, mouse; details: for amount of DNA released by LPS-primed donor BMDM challenged with the NLRP3 activator: 1500,000 donor cells per group, LPS-primed only approximately 0.1 μg
Procedure: Extracellular DNA of donor macrophages (1500,000 cells per group) was isolated using QIAamp Circulating Nucleic Acid Kit according to manufacturer's instructions and then eluted in 300 μL distilled H2O and quantified using spectrophotometric analysis at 260/280 nm with Nanodrop. […] Applicant used 5% of the prepared DNA for qPCR measurement of extracellular mtDNA and the remaining 95% were added to the recipient BMDM for analyzing the paracrine immunostimulatory effects.

VDAC = VDAC cross-linking assay (VDAC oligomerization) in BMDM; type: cell-based, mouse; details: LPS-primed BMDM; for VDAC oligomerization induced by NLRP3 activator: compound pretreatment 16 h (VBIT-4 10 μM, CsA 1 μM, RuR 10 μM), ATP 4 mM or nigericin 10 μM 1 h; for induction of VDAC oligomerization by mtROS generator: DMNQ 20 μM 16 hrs or MitoParaquat 5 μM 1 hr
Procedure: BMDM treated as indicated were washed and collected in PBS, incubated for 40 min at 30° C. with the cross-linking reagent EGS (200 μM). Samples were subjected to SDS-PAGE and IB analyzed with anti-VDAC antibody.

mPTP = experiment: calcein-quenching assay for mPTP opening in BMDM; type: cell-based; details: for mPTP opening (calcein fluorescence): BMDM pretreated 16 h (CsA 1 μM, VBIT-4 10 μM, RuR 10 μM), LPS-primed, ATP or nigericin 1 h; for induction of mPTP opening by mtROS generator: LPS-primed BMDM, DMNQ 20 μM 16 hrs or MitoParaquat 5 μM 1 hr
Procedure: (§2) Bone marrow cells were cultured in high glucose DMEM supplemented with 10% FBS, 20% L929-cell conditioned medium, and 100 U/mL penicillin-streptomycin for 7-10 days at 37° C. with 5% CO2 (Hornung et al., 2008).
(§3) Mitochondrial membrane potential was measured using TMRM according to manufacturer's instructions. Briefly, BMDM were primed or not with LPS for 4 h, and further stimulated with ATP or nigericin for 60 minutes. Cells were incubated with 200 nM TMRM for 30 minutes at 37° C. After washing twice, fluorescence intensity was determined per manufacturer's instructions using a FilterMax F5 multimode plate reader (Molecular Devices). Mitochondrial reactive oxygen species (mtROS) were measured using MitoSOX (Invitrogen) as described (Xian et al., 2021). BMDM treated as indicated were loaded with 4 μM MitoSOX for 20 minutes. After washing with PBS twice, cells were resuspended in PBS and counted. Equal numbers of cells from different treatment groups were then plated onto 96-well plates for fluorescence reading. To quantify [Ca^2+]m by 5 μM Rhod-2 or intracellular Ca^2+ intensity by 1 μM Fluo-4, BMDM treated as indicated were loaded with the respective dyes according to manufacturer's instructions for 30 minutes. After washing twice, fluorescence intensity was determined using a FilterMax F5 multimode plate reader (Molecular Devices). To analyze mPTP opening by calcein-quenching assay, BMDM treated as indicated were loaded with calcein at 2 μM and CoCl2 at 160 μM for 30 minutes at 37° C. according to manufacturer's instructions. After washing twice, fluorescence intensity was determined per with a FilterMax F5 multimode plate reader (Molecular Devices).

BMDM [2] = experiment: cytosolic Ox-mtDNA (8-OH-dG ELISA of cytosolic mtDNA) in BMDM; type: cell-based, mouse; details: for induction of Ox-mtDNA cytosolic release by mtROS generator: DMNQ 20 μM 16 hrs or MitoParaquat 5 μM 1 hr
Procedure: as §2
(§4) BMDM were stimulated as indicated. […] Briefly, BMDM were washed with PBS and harvested, 10% of which were saved for DNA extraction of whole cells. The remaining BMDM resuspended with pre-chilled mitochondrial extraction buffer 1 (220 mM mannitol, 70 mM sucrose, 20 mM HEPES-KOH, pH 7.5, 1 mM EDTA and 2 mg/mL bovine serum albumin) supplemented with a protease inhibitor cocktail and a phosphatase inhibitor cocktail were passed through a 25-G syringe (BD Biosciences) 20 times on ice. The homogenized cells were centrifuged at 1000×g for 15 minutes at 4° C. The supernatant was further centrifuged at 10,000×g for 10 minutes at 4° C. to pellet the mitochondria from supernatant cytosolic fraction. qPCR was performed after DNA purification with AllPrep DNA/RNA Mini Kit according to manufacturer's instructions, from both whole cell extracts and cytosolic fractions using mtDNA primers (D-loop, Cox1, non-NUMT), or after DNA purification from whole cell extracts using nuclear DNA primers (Tert, 18S, B2m). The Ct values obtained for mtDNA abundance in whole cell extracts served as normalization controls for the mtDNA values obtained from the cytosolic fractions. For the measurement of Ox-mtDNA, purified mtDNA was extracted from the cytosolic or mitochondrial fractions as indicated. The 8-OH-dG content was then quantified using 8-hydroxy 2-deoxyguanosine ELISA Kit, per manufacturer's instructions.

BMDM [3] = experiment: cytosolic mtDNA (qPCR after cellular fractionation) in BMDM; type: cell-based, mouse; details: for induction of mtDNA cytosolic release by mtROS generator: DMNQ 20 μM 16 hrs or MitoParaquat 5 μM 1 hr
Procedure: as §2, §4

NLRP3 inflammasome = NLRP3 inflammasome activation (Casp1 p20 and mature IL-1β, IB and ELISA) in BMDM; type: cell-based, mouse; details: for NLRP3 inflammasome activation (Casp1 activation and mature IL-1β secretion): LPS-primed BMDM, compound pretreatment 16 h, challenged with NLRP3 activators; for activation of NLRP3 inflammasome by mtROS generator: BMDM −/+ LPS priming, DMNQ or MitoParaquat
Description: (§1) Paired antibodies (capture and detection) and standard recombinant mouse IL-1β and TNF were used to determine mouse cytokine concentrations according to manufacturer's instructions.

[4] = test system: NLRP3, pro-IL-1β, pro-casp1 and ASC; experiment: immunoblot of NLRP3 inflammasome component expression in BMDM lysates; type: cell-based, mouse; details: BMDM lysates before and after LPS priming, compound pretreatment 16 h
TNF = TNF secretion by BMDM (ELISA); type: cell-based, mouse; details: compound pretreatment 16 h, LPS priming, NLRP3 activators
Description: as §1

BMDM [5] = experiment: mitochondrial membrane potential (TMRM) in BMDM; type: cell-based, mouse; details: BMDM incubated with CsA or VBIT-4
Procedure: as §2
(§5) Mitochondrial membrane potential was measured using TMRM according to manufacturer's instructions. Briefly, BMDM were primed or not with LPS for 4 h, and further stimulated with ATP or nigericin for 60 minutes. Cells were incubated with 200 nM TMRM for 30 minutes at 37° C. After washing twice, fluorescence intensity was determined per manufacturer's instructions using a FilterMax F5 multimode plate reader (Molecular Devices). Mitochondrial reactive oxygen species (mtROS) were measured using MitoSOX (Invitrogen) as described (Xian et al., 2021). […] After washing with PBS twice, cells were resuspended in PBS and counted. Equal numbers of cells from different treatment groups were then plated onto 96-well plates for fluorescence reading. To quantify [Ca^2+]m by 5 μM Rhod-2 or intracellular Ca^2+ intensity by 1 μM Fluo-4, BMDM treated as indicated were loaded with the respective dyes according to manufacturer's instructions for 30 minutes. After washing twice, fluorescence intensity was determined using a FilterMax F5 multimode plate reader (Molecular Devices). […] After washing twice, fluorescence intensity was determined per with a FilterMax F5 multimode plate reader (Molecular Devices).

BMDM [6] = experiment: stimulation of naive recipient BMDM by cell-free mtDNA (cytokine and ISG mRNA, qPCR); type: cell-based, mouse
Procedure: RNA was extracted using AllPrep DNA/RNA Mini kit, and cDNA was synthesized using SuperScript™ VILO™ cDNA Synthesis Kit. mRNA expression was determined by QPCR in a CFX96 thermal cycler (Biorad) as described (Xian et al., 2021). Data are presented in arbitrary units and calculated by the 2^(−ΔΔCT) method. Primer sequences were obtained from the NIH qPrimerDepot (http://mouseprimerdepot.nci.nih.gov) and provided by Integrated DNA technologies.
Extracellular DNA of donor macrophages (1500,000 cells per group) was isolated using QIAamp Circulating Nucleic Acid Kit according to manufacturer's instructions and then eluted in 300 μL distilled H2O and quantified using spectrophotometric analysis at 260/280 nm with Nanodrop. DNA amounts purified among the different treatment groups vary. The DNA amount secreted from LPS-primed donor BMDM is low, approximately at 0.1 μg. The amount of DNA released by LPS-primed donor BMDM challenged with ATP is about 1.3 μg, while the amount of DNA released by LPS-primed donor BMDM challenged with nigericin is around 2 μg. The amount of DNA secreted by LPS-primed donor BMDM challenged with MSU or alum is about 0.7 μg. Applicant used 5% of the prepared DNA for qPCR measurement of extracellular mtDNA and the remaining 95% were added to the recipient BMDM for analyzing the paracrine immunostimulatory effects.

BMDM [7] = experiment: mtROS (MitoSOX) in BMDM; details: LPS-primed BMDM; for mtROS generated by the compound itself: DMNQ 20 μM 16 hrs or MitoParaquat 5 μM 1 hr, compared with ATP
Procedure: as §2, §3

ASC = ASC speck formation (immunofluorescence) in BMDM
BMDM [8] = experiment: 8-OH-dG content of mtDNA from mitochondria of BMDM; details: for mtDNA oxidation caused by mtROS generator: LPS-primed BMDM, DMNQ 20 μM 16 hrs or MitoParaquat 5 μM 1 hr
Procedure: as §2, §4

STING = STING Ser365 phosphorylation (puncta by immunofluorescence, immunoblot) in BMDM; details: CsA 1 μM, VBIT-4 10 μM or FEN1-IN-4 10 μM 16 hrs
Procedure: as §2
Whole cell lysates were prepared in RIPA buffer (25 mM Tris-HCl pH 7.6, 150 mM NaCl, 1% NP-40, 1% sodium deoxycholate, 0.1% SDS) containing a protease inhibitor cocktail and a phosphatase inhibitor cocktail. Protein concentrations were determined using BCA Protein Assay Kit. Equal amounts of protein were separated by SDS-PAGE and transferred onto PVDF membranes, blocked in 5% BSA in 1×TBST for 1 h and incubated with primary antibodies overnight. Secondary antibodies were added for 1 h and detection was performed using Clarity Western ECL Substrate.
(§6) BMDM were fixed in 4% paraformaldehyde (PFA), permeabilized in 0.2% Triton X-100,and blocked in 1×PBS supplemented with 3% BSA. […] Nuclei were counterstained with DAPI.

BMDM [9] = experiment: Ox-mtDNA and mtDNA in the intermembrane space (proteinase K digested mitochondria); details: supernatant of proteinase K digested mitochondria from treated BMDM
Procedure: To dissect the roles of VDAC oligomerization and mPTP in mtDNA escape, Applicant investigated whether Ox-mtDNA and mtDNA were trapped in the mitochondrial intermembrane space (IMS) of VBIT-4 treated BMDM. […] Using this method (FIG. 2F), Applicant measured relative Ox-mtDNA and mtDNA amounts in the IMS.
BMDM were stimulated as indicated. Cellular fractionation was carried out as previously described (Xian and Liou, 2019; Xian et al., 2019). Briefly, BMDM were washed with PBS and harvested, 10% of which were saved for DNA extraction of whole cells. The remaining BMDM resuspended with pre-chilled mitochondrial extraction buffer 1 (220 mM mannitol, 70 mM sucrose, 20 mM HEPES-KOH, pH 7.5, 1 mM EDTA and 2 mg/mL bovine serum albumin) supplemented with a protease inhibitor cocktail and a phosphatase inhibitor cocktail were passed through a 25-G syringe (BD Biosciences) 20 times on ice. The homogenized cells were centrifuged at 1000×g for 15 minutes at 4° C. […] The 8-OH-dG content was then quantified using 8-hydroxy 2-deoxyguanosine ELISA Kit, per manufacturer's instructions.

BMDM [10] = experiment: mitochondrial Ca2+ ([Ca^2+]m, Rhod-2) in BMDM; type: cell-based, mouse; details: LPS-primed BMDM, XeC 5 μM or RuR 10 μM 16 h
Procedure: After washing, BMDM were kept in the incubator for additional 30 minutes before confocal imaging (Nikon CSU-X1 Spinning Disk). Dynamic [Ca^2+]m images were captured at 10 seconds intervals for 4 minutes, with the addition of NLRP3 agonist at 40 seconds.

BMDM [11] = experiment: total mtDNA (LPS-stimulated mtDNA synthesis, qPCR) in BMDM; type: cell-based, mouse; details: compound 10 μM 16 h, before or after LPS priming
Description: Nuclear DNA encoding telomerase reverse transcriptase (Tert), 18S ribosomal RNA and β2 microglobulin (B2m) was used for normalization.

BMDM [12] = experiment: cytochrome C release (immunofluorescence) in BMDM; type: cell-based, mouse; details: BMDM treated with etoposide (positive control)
Procedure: as §2, §6

BMDM [13] = experiment: cytosolic Ca2+ (Fluo-4) in BMDM; type: cell-based, mouse; details: XeC 5 μM 16 h, ATP challenge
Procedure: as §2, §5

[14] = LPS-primed shCtrl or shOgg1 BMDM, CsA 1 μM or VBIT-4 10 μM 16 h, ATP 4 mM 1 h
[15] = LPS-primed BMDM, compound 10 μM 16 h, ATP 4 mM 1 h

O=c1[nH]c(=O)c2[nH]c([O-])nc2[nH]1.[Na+] [MSU, monosodium urate]
amount of DNA released by LPS-primed donor BMDM challenged with the NLRP3 activator (BMDM [1]): about 0.7 μg

O=C(CC(CO)N1CCN(c2ccc(OC(F)(F)F)cc2)CC1)Nc1ccc(Cl)cc1 (stereo not drawn) [VBIT-4]
VDAC oligomerization induced by NLRP3 activator (VDAC): blocked
mPTP opening (calcein fluorescence) (mPTP): little effect on calcein fluorescence
reduction of cytosolic pool of Ox-mtDNA (BMDM [2]; [14]): 81±4%
reduction of cytosolic pool of mtDNA (BMDM [3]; [14]): 50-60%
NLRP3 inflammasome activation (Casp1 activation and mature IL-1β secretion) (NLRP3 inflammasome): inhibited
NLRP3, pro-IL-1β, pro-casp1 and ASC expression [4]: without affecting
TNF secretion (TNF): without affecting
mitochondrial depolarization upon NLRP3 activator challenge (BMDM [5]): abrogated
cell-free mtDNA release (BMDM [1]; LPS-primed donor BMDM pretreated with compound, challenged with ATP or nigericin): inhibited
immunostimulatory activity of DNA secreted by treated donor BMDM (BMDM [6]; recipient BMDM incubated 24 h with DNA from compound-pretreated donor BMDM, cytokine and ISG mRNAs): inhibited
mtROS production (BMDM [7]; compound pretreatment 16 h, ATP or nigericin): modest decline
ASC speck formation (ASC; BMDM, VBIT-4 10 μM 16 h, LPS-primed, ATP or nigericin 1 h): inhibited
reduction of mtDNA oxidation (8-OH-dG in mitochondrial mtDNA) (BMDM [8]; LPS-primed BMDM pretreated with CsA or VBIT-4 16 h, ATP stimulation): 45±5.0%
formation of Ser^365 phosphorylated STING puncta (STING; LPS-primed BMDM, ATP or nigericin): diminished
ATP-induced STING Ser^365 phosphorylation (immunoblot) in Nlrp3−/− BMDM (STING; LPS-primed Nlrp3−/− BMDM, ATP): completely blocked
amount of Ox-mtDNA within the IMS (BMDM [9]): elevated
amount of mtDNA (different regions of the genome) within the IMS (BMDM [9]): elevated

N.N.N.N.N.N.N.N.N.N.N.N.N.N.[Cl-].[Cl-].[Cl-].[Cl-].[Cl-].[Cl-].[O-2].[O-2].[Ru+3].[Ru+3].[Ru+4] [RuR, ruthenium red]
VDAC oligomerization induced by NLRP3 activator (VDAC): blocked
mPTP opening (calcein fluorescence) (mPTP): blocked
cytosolic Ox-mtDNA (release) (BMDM [2]; [15]): reducing
cytosolic mtDNA release (BMDM [3]; [15]): reducing
NLRP3 inflammasome activation (Casp1 activation and mature IL-1β secretion) (NLRP3 inflammasome): suppressed
NLRP3, pro-IL-1β, pro-casp1 and ASC expression [4]: no effect
TNF secretion (TNF): no effect
ATP- or nigericin-induced [Ca^2+]m pulse (Rhod-2 fluorescence) (BMDM [10]): disrupted
LPS-stimulated mtDNA synthesis (total mtDNA) (BMDM [11]): did not inhibit

C[n+]1ccc(-c2cc[n+](CCCCCCCCCC[P+](c3ccccc3)(c3ccccc3)c3ccccc3)cc2)cc1.[I-].[I-].[I-] [mitoParaquat]
induction of VDAC oligomerization by mtROS generator (VDAC): neither compound induced
induction of mPTP opening by mtROS generator (mPTP): neither compound induced
induction of Ox-mtDNA cytosolic release by mtROS generator (BMDM [2]; LPS-primed BMDM): neither compound induced
induction of mtDNA cytosolic release by mtROS generator (BMDM [3]; LPS-primed BMDM): neither compound induced
activation of NLRP3 inflammasome by mtROS generator (NLRP3 inflammasome): neither mtROS generator activated
mtROS generated by the compound itself (BMDM [7]): as much mtROS as ATP
mtDNA oxidation caused by mtROS generator (BMDM [8]): augmented

COc1cc([C@@H]2c3cc4c(cc3[C@@H](O[C@@H]3O[C@@H]5CO[C@@H](C)O[C@H]5[C@H](O)[C@H]3O)[C@H]3COC(=O)[C@H]23)OCO4)cc(OC)c1O [etoposide]
cytochrome C release (BMDM [12]): induced cytochrome C release
ASC speck formation triggered by apoptosis inducer (ASC; BMDM treated with etoposide): did not trigger

O=C1NC(=NS(=O)(=O)c2cccc3ccccc23)S/C1=C\c1ccc(Br)cc1 [Pitstop2]
cytokine mRNA induction by extracellular mtDNA (BMDM [6]; recipient BMDM with Pitstop 2 (2 uM), 24 hrs with extracellular DNA): diminish

COC1=C(OC)C(=O)c2ccccc2C1=O [DMNQ]
induction of VDAC oligomerization by mtROS generator (VDAC): neither compound induced
induction of mPTP opening by mtROS generator (mPTP): neither compound induced
induction of Ox-mtDNA cytosolic release by mtROS generator (BMDM [2]; LPS-primed BMDM): neither compound induced
induction of mtDNA cytosolic release by mtROS generator (BMDM [3]; LPS-primed BMDM): neither compound induced
activation of NLRP3 inflammasome by mtROS generator (NLRP3 inflammasome): neither mtROS generator activated
mtROS generated by the compound itself (BMDM [7]): as much mtROS as ATP
mtDNA oxidation caused by mtROS generator (BMDM [8]): augmented

Nc1ncnc2c1ncn2[C@@H]1O[C@H](COP(=O)(O)OP(=O)(O)OP(=O)(O)O)[C@@H](O)[C@H]1O [ATP, adenosine triphosphate]
amount of DNA released by LPS-primed donor BMDM challenged with the NLRP3 activator (BMDM [1]): about 1.3 μg

CO[C@@H]1C[C@@H](C[C@H]2CC[C@H](C)[C@H]([C@@H](C)C(=O)O)O2)O[C@]2(O[C@](C)([C@H]3CC[C@@](C)([C@@H]4O[C@@H]([C@H]5O[C@@](O)(CO)[C@H](C)C[C@@H]5C)C[C@@H]4C)O3)C[C@H]2C)[C@@H]1C [nigericin]
amount of DNA released by LPS-primed donor BMDM challenged with the NLRP3 activator (BMDM [1]): around 2 μg

C1CCC[C@H]2CCCN3CC[C@@H](CCCCCC[C@@H]4CCCN5CC[C@@H](CC1)O[C@@H]45)O[C@@H]23 [XeC, xestospongin C]
ATP- or nigericin-induced [Ca^2+]m pulse (Rhod-2 fluorescence) (BMDM [10]): had no effect
cytosolic Ca^2+ (Fluo-4 fluorescence) (BMDM [13]): decreased

From patent US20250064808A1, “METHODS FOR THE TREATMENT OF NLRP3 RELATED DISORDERS” (priority 2022, published 2025)
